Values quoted from earlier work as cited in patent publication US20120220783A1, “SALTS OF SUNITINIB” (RANBAXY LABORATORIES LIMITED, priority 2009, published 2012).

Settings: crystalline form, statement of WO 2009/104021

In the case of CCN(CC)CCNC(=O)c1c(C)[nH]c(/C=C2\C(=O)Nc3ccc(F)cc32)c1C.O=C(O)C[C@H](O)C(=O)O [Form II of sunitinib L-malate, butanedioic acid, hydroxy-, (2S)-, compound with N-[2-(diethylamino)ethyl]-5-[(Z)-(5-fluoro-1,2-dihydro-2-oxo-3H-indol-3-ylidine)methyl]-2,4-dimethyl-1H-pyrrole-3-carboxamide (1:1)], the “thermodynamic stability / form conversion” value (appears to readily convert to Form I) is listed as “thermodynamically unstable” and the hygroscopicity is listed as “hygroscopic”.
